# Results from PubChem BioAssay AID248 (DTP/NCI, 2004).
# Several values for one entry are separate records, joined by “and”; a condition that tells them apart may be missing. Equal entries are not always repeated. Inconclusive results and toxic doses are left out.
# System: L1210 leukemia ip in BDF1 mice, survival T/C
# Test: NCI In Vivo Anticancer Drug Screen. Data for tumor model L1210 Leukemia (intraperitoneal) in B6D2F1 (BDF1) mice
# Details: endpoint: mean survival time, higher = longer survival
# In short: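 Value reflects the ratio of survival in compound-treated mice to survival in vehicle-treated controls, with both groups carrying the same transplanted tumor.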
# [1] = dose: 100.0 mg/kg/injection, schedule: Q01DX009 (ip), vehicle: saline
# [2] = dose: 100.0 mg/kg/injection, schedule: Q04DX003 (ip), vehicle: saline
# [3] = dose: 200.0 mg/kg/injection, schedule: Q01DX009 (ip), vehicle: saline
# [4] = dose: 200.0 mg/kg/injection, schedule: Q04DX003 (ip), vehicle: saline
# [5] = dose: 400.0 mg/kg/injection, schedule: Q01DX009 (ip), vehicle: saline
# [6] = dose: 100.0 mg/kg/injection, schedule: Q01DX009 (ip), vehicle: Klucel (hydroxypropylcellulose) (HPC)
# [7] = dose: 200.0 mg/kg/injection, schedule: Q01DX009 (ip), vehicle: Klucel (hydroxypropylcellulose) (HPC)
# [8] = dose: 400.0 mg/kg/injection, schedule: Q01DX009 (ip), vehicle: Klucel (hydroxypropylcellulose) (HPC)
# [9] = dose: 200.0 mg/kg/injection, schedule: Q01DX001 (ip), vehicle: carboxymethylcellulose (CMC)
# [10] = dose: 75.0 mg/kg/injection, schedule: Q01DX001 (ip), vehicle: saline
# [11] = dose: 100.0 mg/kg/injection, schedule: Q04DX003 (ip), vehicle: saline with Tween-80
# [12] = dose: 200.0 mg/kg/injection, schedule: Q04DX003 (ip), vehicle: saline with Tween-80
# [13] = dose: 400.0 mg/kg/injection, schedule: Q04DX003 (ip), vehicle: saline with Tween-80
# [14] = dose: 400.0 mg/kg/injection, schedule: Q04DX003 (ip), vehicle: saline
# [15] = dose: 100.0 mg/kg/injection, schedule: Q01DX001 (ip), vehicle: saline
# [16] = dose: 200.0 mg/kg/injection, schedule: Q01DX001 (ip), vehicle: saline
# [17] = dose: 400.0 mg/kg/injection, schedule: Q01DX001 (ip), vehicle: saline
# [18] = dose: 50.0 mg/kg/injection, schedule: Q01DX001 (ip), vehicle: saline
smiles,measurement,setting,value
CC(=O)CCCc1ccccc1,T/C,[1],92 % of control
same,T/C,[2],100 % of control
same,T/C,[3],98 % of control
same,T/C,[4],100 % of control
same,T/C,[5],104 % of control
N#Cc1ccc(/C=C/C(=O)c2ccccc2)cc1,T/C,"dose: 100.0 mg/kg/injection, schedule: Q01DX001 (ip), vehicle: Klucel (hydroxypropylcellulose) (HPC)",95 % of control
same,T/C,[6],96 % of control
same,T/C,"dose: 200.0 mg/kg/injection, schedule: Q01DX001 (ip), vehicle: Klucel (hydroxypropylcellulose) (HPC)",88 % of control
same,T/C,[7],93 % of control
same,T/C,[8],89 % of control
CCSc1ncc(Br)c(Sc2nc(N)nc3nc[nH]c23)n1,T/C,"dose: 1.5 mg/kg/injection, schedule: Q01DX Z (ip), vehicle: carboxymethylcellulose (CMC)",107 % of control
same,T/C,"dose: 12.0 mg/kg/injection, schedule: Q01DX Z (ip), vehicle: carboxymethylcellulose (CMC)",150 % of control
same,T/C,"dose: 25.0 mg/kg/injection, schedule: Q01DX001 (ip), vehicle: carboxymethylcellulose (CMC)",121 % of control
same,T/C,"dose: 25.0 mg/kg/injection, schedule: Q01DX Z (ip), vehicle: methylcellulose (MC)",86 % of control
same,T/C,[9],116 % of control
C=C1C(=O)N(C)C(C(=O)OC)CC1(O)C(CC)C(=O)OC (configuration not stated),T/C,"dose: 18.7 mg/kg/injection, schedule: Q01DX001 (ip), vehicle: saline",94 % of control
same,T/C,"dose: 37.5 mg/kg/injection, schedule: Q01DX001 (ip), vehicle: saline",98 % of control
same,T/C,[10],117 % of control
same,T/C,"dose: 150.0 mg/kg/injection, schedule: Q01DX001 (ip), vehicle: saline",102 % of control
N#[N+]c1nc2ncnc(N)c2[nH]1,T/C,"dose: 12.5 mg/kg/injection, schedule: Q01DX Z (ip), vehicle: saline",107 % of control
same,T/C,"dose: 25.0 mg/kg/injection, schedule: Q01DX Z (ip), vehicle: saline",114 % of control
O=C(Cc1ccccc1)NC(CSSCC(NC(=O)Cc1ccccc1)C(=O)O)C(=O)O (configuration not stated),T/C,"dose: 88.0 mg/kg/injection, schedule: Q01DX009 (ip), vehicle: Klucel (hydroxypropylcellulose) (HPC)",93 % of control
same,T/C,[1],100 % of control
same,T/C,[11],95 % of control
same,T/C,[2],105 % of control and 97 % of control
same,T/C,"dose: 132.0 mg/kg/injection, schedule: Q01DX009 (ip), vehicle: Klucel (hydroxypropylcellulose) (HPC)",90 % of control
same,T/C,[7],100 % of control
same,T/C,[12],98 % of control
same,T/C,[4],107 % of control and 100 % of control
same,T/C,[5],103 % of control
same,T/C,[13],98 % of control
same,T/C,[14],96 % of control and 100 % of control
CCNC(=O)N1CC2CCC(C1)N2C,T/C,[2],113 % of control
same,T/C,[4],106 % of control
same,T/C,[14],98 % of control
OCc1ccc[n+](CCc2c[nH]c3ccccc23)c1,T/C,[11],97 % of control
same,T/C,[12],103 % of control
CCCn1ccc(N)nc1=O,T/C,"dose: 75.0 mg/kg/injection, schedule: Q01DX001 (ip), vehicle: Klucel (hydroxypropylcellulose) (HPC)",116 % of control
same,T/C,"dose: 150.0 mg/kg/injection, schedule: Q01DX001 (ip), vehicle: Klucel (hydroxypropylcellulose) (HPC)",119 % of control
same,T/C,"dose: 300.0 mg/kg/injection, schedule: Q01DX001 (ip), vehicle: Klucel (hydroxypropylcellulose) (HPC)",111 % of control
CC(CCC(=O)O)(NC(=O)c1ccc(NCc2ccc3nc(N)nc(N)c3c2)cc1)C(=O)O (configuration not stated),T/C,"dose: 0.5 mg/kg/injection, schedule: Q01DX009 (ip), vehicle: saline",150 % of control
same,T/C,"dose: 1.0 mg/kg/injection, schedule: Q01DX009 (ip), vehicle: saline",163 % of control and 176 % of control
same,T/C,"dose: 4.0 mg/kg/injection, schedule: Q01DX009 (ip), vehicle: saline",163 % of control
same,T/C,"dose: 8.0 mg/kg/injection, schedule: Q01DX009 (ip), vehicle: saline",112 % of control
same,T/C,"dose: 8.0 mg/kg/injection, schedule: Q04DX003 (ip), vehicle: saline",115 % of control
same,T/C,"dose: 16.0 mg/kg/injection, schedule: Q01DX009 (ip), vehicle: saline",102 % of control
same,T/C,"dose: 16.0 mg/kg/injection, schedule: Q04DX003 (ip), vehicle: saline",123 % of control
same,T/C,"dose: 64.0 mg/kg/injection, schedule: Q04DX003 (ip), vehicle: saline",115 % of control
same,T/C,"dose: 128.0 mg/kg/injection, schedule: Q04DX003 (ip), vehicle: saline",99 % of control
CCCCNC(=O)OCC(C)(CCC)COC(N)=O (configuration not stated),T/C,"dose: 25.0 mg/kg/injection, schedule: Q01DX009 (ip), vehicle: saline",101 % of control
same,T/C,"dose: 25.0 mg/kg/injection, schedule: Q04DX003 (ip), vehicle: saline",95 % of control
same,T/C,"dose: 50.0 mg/kg/injection, schedule: Q01DX009 (ip), vehicle: saline",101 % of control
same,T/C,"dose: 50.0 mg/kg/injection, schedule: Q04DX003 (ip), vehicle: saline",95 % of control
same,T/C,[1],109 % of control
same,T/C,[2],101 % of control
same,T/C,[3],104 % of control
same,T/C,[4],95 % of control
same,T/C,[5],103 % of control
same,T/C,[14],95 % of control
COc1cc(C=Nc2cc(Br)c(O)c(Br)c2)ccc1N(CCCCl)CCCCl,T/C,"dose: 100.0 mg/kg/injection, schedule: Q04DX003 (ip), vehicle: Klucel (hydroxypropylcellulose) (HPC)",97 % of control
same,T/C,"dose: 200.0 mg/kg/injection, schedule: Q04DX003 (ip), vehicle: Klucel (hydroxypropylcellulose) (HPC)",100 % of control
same,T/C,"dose: 400.0 mg/kg/injection, schedule: Q04DX003 (ip), vehicle: Klucel (hydroxypropylcellulose) (HPC)",102 % of control
CC(=O)C(C#N)C(C)=O.CC(=O)C(C#N)C(C)=O.[Mn],T/C,[1],107 % of control
same,T/C,[2],105 % of control
same,T/C,[4],102 % of control
CC(=O)Oc1ccc(C2(c3ccc(OC(C)=O)cc3)C(=O)Nc3ccccc32)cc1,T/C,[15],91 % of control
same,T/C,[6],103 % of control
same,T/C,[16],92 % of control
same,T/C,[7],97 % of control
same,T/C,[17],87 % of control
same,T/C,[8],104 % of control
CCN(CC)CCNCCCS(=O)(=O)c1ccc(NC(C)=O)cc1,T/C,[15],97 % of control
same,T/C,[16],97 % of control
same,T/C,[17],97 % of control
Nc1ccc2scnc2c1,T/C,"dose: 100.0 mg/kg/injection, schedule: Q01DX009 (ip), vehicle: saline with Tween-80",98 % of control
same,T/C,"dose: 200.0 mg/kg/injection, schedule: Q01DX009 (ip), vehicle: saline with Tween-80",98 % of control
same,T/C,"dose: 400.0 mg/kg/injection, schedule: Q01DX009 (ip), vehicle: saline with Tween-80",92 % of control
CC(=O)NCCNC(C)=O,T/C,[18],102 % of control
same,T/C,[15],108 % of control
same,T/C,[16],117 % of control
same,T/C,[17],96 % of control
O=C1CC[C@H](NC(=O)OCc2ccccc2)C(=O)O1,T/C,[11],100 % of control
same,T/C,[12],100 % of control
same,T/C,[13],97 % of control
O=[N+]([O-])c1ccccc1-c1ccccc1[N+](=O)[O-],T/C,"dose: 100.0 mg/kg/injection, schedule: Q04DX002 (ip), vehicle: saline with Tween-80",97 % of control
same,T/C,"dose: 200.0 mg/kg/injection, schedule: Q04DX002 (ip), vehicle: saline with Tween-80",90 % of control
same,T/C,"dose: 400.0 mg/kg/injection, schedule: Q04DX002 (ip), vehicle: saline with Tween-80",87 % of control
CCCCNC(=S)Nc1ccccc1,T/C,"dose: 75.0 mg/kg/injection, schedule: Q01DX001 (ip), vehicle: other",117 % of control
same,T/C,"dose: 150.0 mg/kg/injection, schedule: Q01DX001 (ip), vehicle: other",117 % of control
same,T/C,"dose: 300.0 mg/kg/injection, schedule: Q01DX001 (ip), vehicle: other",102 % of control
Cc1ccc2oc(=O)cc(C)c2c1,T/C,"dose: 100.0 mg/kg/injection, schedule: Q01DX001 (ip), vehicle: carboxymethylcellulose (CMC)",91 % of control
same,T/C,[9],96 % of control
same,T/C,"dose: 400.0 mg/kg/injection, schedule: Q01DX001 (ip), vehicle: carboxymethylcellulose (CMC)",93 % of control
S=C([S-])N1CCOCC1.S=C([S-])N1CCOCC1.[Zn],T/C,"dose: 4.68 mg/kg/injection, schedule: Q01DX009 (ip), vehicle: saline",90 % of control
same,T/C,"dose: 9.37 mg/kg/injection, schedule: Q01DX009 (ip), vehicle: saline",86 % of control
same,T/C,"dose: 18.75 mg/kg/injection, schedule: Q01DX009 (ip), vehicle: saline",91 % of control
same,T/C,"dose: 18.75 mg/kg/injection, schedule: Q04DX003 (ip), vehicle: saline",100 % of control
same,T/C,"dose: 37.5 mg/kg/injection, schedule: Q04DX003 (ip), vehicle: saline",100 % of control
same,T/C,[10],90 % of control
CCN(CC)C(=O)/C=C/c1ccccc1,T/C,[18],102 % of control
same,T/C,[15],96 % of control
same,T/C,[16],96 % of control
